Laboratory results: patent US8187802B2, “Cell lines useful for assessing modulation of autophagy” (Rutgers, The State University of New Jersey, priority 2008, dated 2012)
“Also recorded” adds a separate entry of the source.

Tests used:
Type in all cases: cell-based, mouse
[1] = system: Bcl-2 expressing beclin1^+/+ and beclin1^+/− iBMK cells; assay: MTT assays of sensitivity to ER stress and proteasome inhibition; conditions: MTT assay; increasing concentrations; tunicamycin 3 days, epoxomycin 2 days; normal growth conditions
Text: FIG. 3 illustrates the effects of autophagy defects in altering the stress response and sensitize cells to ER stress and proteasome inhibition. (A) Western blots showing levels of p62, ER chaperones, PDI and ubiquitin in Bcl-2 expressing beclin1^+/+, beclin1^+/−, atg5^+/+ and atg5^−/− iBMK cells following 5 or 7 days of metabolic stress, and 1 and 2 days of recovery. (B-D) Allelic loss of beclin1 sensitizes cells selectively to ER stress and proteasome inhibition. MTT assays showing sensitivity of Bcl-2 expressing beclin1^+/+ (Blue) and beclin1^+/− (Red) iBMK cells in response to increasing concentrations of (B) tunicamycin for 3 days, or (C) epoxomycin for 2 days, and (D) following 5 days of metabolic stress. Data are presented as mean±SD. (E) Autophagy deficiency causes mitochondrial damage. […]
Since autophagy defects indicated an elevated demand for protein folding, the sensitivity of beclin1 cells to pharmacological induction of ER stress was investigated. […] Degradation of unfolded proteins via the proteasome pathway and ameliorates ER stress and to investigate if autophagy deficiency also elevated the burden on the ubiquitin-proteasome system, the sensitivity to the proteasome inhibitor epoxomycin was assessed. […]

[2] = system: Bcl-2 expressing beclin1^+/+ and beclin1^+/− iBMK cells; assay: Survival during metabolic stress and recovery without and with ROS scavenger (time-lapse images, adherent cells); conditions: NAC 1 mM, 5 days of metabolic stress
Text: (§1) FIG. 5 illustrates effects of metabolic stress in promoting elevated ROS production and chromosomal instability in autophagy-deficient cells. (A) Autophagy-deficiency leads to elevated ROS production. Overlays show ROS levels in Bcl-2 expressing beclin1^+/+ (Green) and beclin1^+/− iBMK cells (Blue) (x-axis, log scale) under normal growth (0 Di) and at 0.5, 1, 2.5 and 24 hr (beclin1^+/+, green arrows and beclin1^+/−, red arrows) during recovery (0.5-24 hR) from 5 days of metabolic stress (5 Di) by flow-cytometry using the ROS sensor DCF-DA. The ROS levels in untreated cells are shown in dotted lines for comparison. (B) Representative histogram from three independent experiments measuring the mean ROS levels in Bcl-2 expressing beclin1^+/+ and beclin1^+/− iBMK cells shown in (A). […] Representative time-lapse images of Bcl-2 expressing beclin1^+/+ and beclin1^+/− iBMK cells during recovery following 5 days of metabolic stress in presence (NAC) and absence (UT) of the ROS scavenger NAC (1 mM) (relative percentage of adherent cells compared to time 0 is shown). […] Western blot analysis of p62 levels in Bcl-2 expressing beclin1^+/+, beclin1^+/−, atg5^+/+ and atg5^−/− iBMK cell lines following 0 or 7 days of metabolic stress followed by 1 day recovery without and with NAC. […] Numbers represent passage numbers at which ploidy was determined. […]

[3] = system: diploid beclin1^+/+ and beclin1^+/− iBMK cells; assay: Flow-cytometry analysis of DNA content (progression to aneuploidy) over passages without and with NAC; conditions: NAC 1 mM
Text: FIG. 5 illustrates effects of metabolic stress in promoting elevated ROS production and chromosomal instability in autophagy-deficient cells. (A) Autophagy-deficiency leads to elevated ROS production. Overlays show ROS levels in Bcl-2 expressing beclin1^+/+ (Green) and beclin1^+/− iBMK cells (Blue) (x-axis, log scale) under normal growth (0 Di) and at 0.5, 1, 2.5 and 24 hr (beclin1^+/+, green arrows and beclin1^+/−, red arrows) during recovery (0.5-24 hR) from 5 days of metabolic stress (5 Di) by flow-cytometry using the ROS sensor DCF-DA. The ROS levels in untreated cells are shown in dotted lines for comparison. […] Numbers represent passage numbers at which ploidy was determined.
To determine if the elevated ROS and oxidative stress in autophagy-deficient cells contributes to cellular damage, the stress response without and with the ROS scavenger, N-acetyl cysteine (NAC) was examined. […] To examine the role of increased ROS levels and oxidative stress on genomic instability, the DNA content of early passage diploid beclin1^+/+, and autophagy-deficient beclin1^+/− iBMK cells without and with NAC by flow-cytometry were monitored. beclin1^+/+ iBMK cells maintained diploidy after 40 passages and the presence of NAC had no effect. […]

p62 = assay: Western blot analysis of p62 levels after metabolic stress without and with NAC
Text: as §1

Compound | sensitivity of beclin1^+/− cells compared to wild-type cells [1] | protective effect in beclin1^+/− cells relative to wild-type [2] | survival during metabolic stress ([2]; beclin1^+/+ and beclin1^+/− cells) | effect on maintenance of diploidy ([3]; beclin1^+/+ iBMK cells, 40 passages) | progression to aneuploidy ([3]; beclin1^+/− cells, passages 18 and 39) | p62 accumulation during metabolic stress (p62; NAC 1 mM, beclin1^+/− iBMK cells) | p62 accumulation in autophagy-deficient cells (p62; beclin1^+/− and atg5^−/− cells, 7 days of metabolic stress followed by 1 day recovery, with NAC)
Tunicamycin | increased sensitivity | – | – | – | – | – | –
CC(=O)N[C@@H](CS)C(=O)O [NAC, N-acetyl cysteine] | – | more profound | partially rescues the susceptibility to metabolic stress and recovery; also recorded: improved survival | had no effect | limits progression to aneuploidy; also recorded: delayed this progression | decreased p62 accumulation | suppresses p62 accumulation
